Source: patent publication US20250388553A1 (Incyte Corporation, priority 2018, published 2025)
Structures can show the parent of a compound that is named as a salt.

Tests used:
[1] = target: PI3Kδ (p1106/p85a) Recombinant Human Protein (Homo sapiens (Human), UniProt O00329); assay: PI3Kδ scintillation proximity assay; type: biochemical; conditions: scintillation proximity assay, recombinant human PI3Kδ
Source text: Example C. PI3Kδ Scintillation Proximity Assay
(§1) Materials: [γ-^33P]ATP (10 mCi/mL) and Wheat Germ Agglutinin (WGA) YSi SPA Scintillation Beads was purchased from Perkin Elmer (Waltham, MA). Lipid kinase substrate, D-myo-Phosphatidylinositol 4,5-bisphosphate (PtdIns(4,5)P2)D (+)-sn-1,2-di-O-octanoylglyceryl, 3-O-phospho linked (PIP2), CAS 204858-53-7, was purchased from Echelon Biosciences (Salt Lake City, UT). PI3Kδ (p1106/p85a) Recombinant Human Protein was purchased from Eurofins (St Charles, MO). ATP, MgCl2, DTT, EDTA, MOPS and CHAPS were purchased from Sigma Aldrich (St. Louis, MO).
(§2) The kinase reaction was conducted in polystyrene 384-well Greiner Bio-one white plate from Thermo Fisher Scientific in a final volume of 25 μL. Inhibitors were first diluted serially in DMSO and added to the plate wells before the addition of other reaction components. The final concentration of DMSO in the assay was 2%. The PI3Kδ assay was carried out at room temperature in 20 mM MOPS, pH 6.7, 10 mM MgCl2, 5 mM DTT and CHAPS 0.03%. Reactions were initiated by the addition of ATP, the final reaction mixture consisted of 20 µM […], 0.5 μCi [γ-^33P]ATP, 3.4 nM PI3Kδ. Reactions were incubated for 120 min and terminated by the addition of 40 μL SPA beads suspended in quench buffer: 163 mM potassium phosphate pH 7.8, 20% glycerol, 25 mM EDTA. The final concentration of SPA beads is 1.0 mg/mL. After the plate sealing, plates were shaken overnight at room temperature and centrifuged at 1500 rpm for 10 min, the radioactivity of the product was determined by scintillation counting on Topcount (PerkinElmer). IC50 determination was performed by fitting the curve of percent of the solvent control activity versus the log of the inhibitor concentration using the GraphPad Prism 6.0 software.
(§3) The compounds of the Examples were tested in the assays described in Examples A, B and C and found to have the IC50s are shown in Tables A1, A2, A3 and A4.

[2] = target: PI3Kγ (p110γ) Recombinant Human Protein (Homo sapiens (Human), UniProt P48736); assay: PI3K-γ scintillation proximity assay; type: biochemical; conditions: scintillation proximity assay, recombinant human p110γ
Source text: Example B. PI3K-γ Scintillation Proximity Assay
as §1, with “PI3Kγ (p110γ)” for “PI3Kδ (p1106/p85a)”, “Life technology (Grand Island, NY).” for “Eurofins (St Charles, MO).”
as §2, with “[…].” for “μL.”, “PI3Kγ” for “PI3Kδ”, “13” for “3.4”, “PI3Kγ.” for “PI3Kδ.”, “(Perkin-Elmer).” for “(PerkinElmer).”
as §3

Chain of PI3Kγ (p110γ) Recombinant Human Protein (P48736 whole entry): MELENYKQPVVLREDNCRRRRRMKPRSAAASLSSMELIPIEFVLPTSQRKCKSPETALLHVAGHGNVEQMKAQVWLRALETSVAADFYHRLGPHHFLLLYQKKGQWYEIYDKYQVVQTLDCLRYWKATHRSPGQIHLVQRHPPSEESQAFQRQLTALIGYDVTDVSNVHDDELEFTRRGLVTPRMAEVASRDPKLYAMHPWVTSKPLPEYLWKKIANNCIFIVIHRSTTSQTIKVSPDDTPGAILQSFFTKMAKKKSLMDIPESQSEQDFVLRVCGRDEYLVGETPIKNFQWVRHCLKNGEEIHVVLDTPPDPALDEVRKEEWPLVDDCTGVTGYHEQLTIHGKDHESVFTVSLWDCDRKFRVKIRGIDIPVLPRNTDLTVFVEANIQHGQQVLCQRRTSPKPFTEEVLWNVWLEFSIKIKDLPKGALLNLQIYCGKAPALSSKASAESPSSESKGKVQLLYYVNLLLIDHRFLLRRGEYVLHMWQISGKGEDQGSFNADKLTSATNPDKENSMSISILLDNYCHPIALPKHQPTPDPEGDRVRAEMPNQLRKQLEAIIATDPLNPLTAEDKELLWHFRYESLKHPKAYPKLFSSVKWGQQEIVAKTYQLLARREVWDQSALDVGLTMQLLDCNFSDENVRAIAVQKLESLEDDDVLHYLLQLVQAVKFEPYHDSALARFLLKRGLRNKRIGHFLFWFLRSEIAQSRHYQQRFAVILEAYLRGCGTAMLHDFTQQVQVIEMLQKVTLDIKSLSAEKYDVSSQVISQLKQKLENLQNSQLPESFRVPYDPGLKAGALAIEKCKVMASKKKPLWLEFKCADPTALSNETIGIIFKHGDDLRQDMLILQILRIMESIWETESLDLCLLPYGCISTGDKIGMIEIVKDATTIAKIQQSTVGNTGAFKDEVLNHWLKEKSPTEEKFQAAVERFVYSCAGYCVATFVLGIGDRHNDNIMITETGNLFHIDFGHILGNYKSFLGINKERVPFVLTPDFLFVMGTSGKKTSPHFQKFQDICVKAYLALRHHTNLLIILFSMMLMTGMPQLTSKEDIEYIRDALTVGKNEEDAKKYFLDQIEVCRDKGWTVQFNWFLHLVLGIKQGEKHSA
Chain of PI3Kδ (p1106/p85a) Recombinant Human Protein (O00329 whole entry): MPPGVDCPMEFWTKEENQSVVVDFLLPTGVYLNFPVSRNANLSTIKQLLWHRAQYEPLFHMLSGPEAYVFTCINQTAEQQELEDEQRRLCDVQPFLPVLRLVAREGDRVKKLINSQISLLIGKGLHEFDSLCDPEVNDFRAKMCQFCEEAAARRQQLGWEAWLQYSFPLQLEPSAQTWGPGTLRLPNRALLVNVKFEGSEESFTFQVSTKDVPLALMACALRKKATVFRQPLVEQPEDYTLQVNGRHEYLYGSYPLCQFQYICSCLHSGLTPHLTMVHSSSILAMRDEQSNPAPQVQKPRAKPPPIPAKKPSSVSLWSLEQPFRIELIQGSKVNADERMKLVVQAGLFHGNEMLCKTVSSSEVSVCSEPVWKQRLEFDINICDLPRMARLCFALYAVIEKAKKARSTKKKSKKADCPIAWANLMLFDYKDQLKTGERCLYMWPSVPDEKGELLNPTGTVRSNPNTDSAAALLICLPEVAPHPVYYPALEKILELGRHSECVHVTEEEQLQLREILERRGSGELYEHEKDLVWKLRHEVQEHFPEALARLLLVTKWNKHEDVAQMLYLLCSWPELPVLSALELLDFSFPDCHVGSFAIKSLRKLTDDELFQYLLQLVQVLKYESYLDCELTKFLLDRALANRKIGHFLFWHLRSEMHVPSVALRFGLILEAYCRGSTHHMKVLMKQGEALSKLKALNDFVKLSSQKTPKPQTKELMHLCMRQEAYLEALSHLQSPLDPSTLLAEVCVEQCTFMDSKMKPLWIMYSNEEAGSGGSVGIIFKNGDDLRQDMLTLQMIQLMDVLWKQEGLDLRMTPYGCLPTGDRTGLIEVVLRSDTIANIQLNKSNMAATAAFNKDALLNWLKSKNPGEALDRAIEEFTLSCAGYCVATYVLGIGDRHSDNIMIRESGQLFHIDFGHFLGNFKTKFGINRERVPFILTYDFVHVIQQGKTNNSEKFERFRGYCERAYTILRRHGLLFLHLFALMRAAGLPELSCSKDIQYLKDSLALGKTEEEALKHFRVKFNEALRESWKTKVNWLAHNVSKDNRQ
Chain of PI3Kδ (p1106/p85a) Recombinant Human Protein (P27986 whole entry partner): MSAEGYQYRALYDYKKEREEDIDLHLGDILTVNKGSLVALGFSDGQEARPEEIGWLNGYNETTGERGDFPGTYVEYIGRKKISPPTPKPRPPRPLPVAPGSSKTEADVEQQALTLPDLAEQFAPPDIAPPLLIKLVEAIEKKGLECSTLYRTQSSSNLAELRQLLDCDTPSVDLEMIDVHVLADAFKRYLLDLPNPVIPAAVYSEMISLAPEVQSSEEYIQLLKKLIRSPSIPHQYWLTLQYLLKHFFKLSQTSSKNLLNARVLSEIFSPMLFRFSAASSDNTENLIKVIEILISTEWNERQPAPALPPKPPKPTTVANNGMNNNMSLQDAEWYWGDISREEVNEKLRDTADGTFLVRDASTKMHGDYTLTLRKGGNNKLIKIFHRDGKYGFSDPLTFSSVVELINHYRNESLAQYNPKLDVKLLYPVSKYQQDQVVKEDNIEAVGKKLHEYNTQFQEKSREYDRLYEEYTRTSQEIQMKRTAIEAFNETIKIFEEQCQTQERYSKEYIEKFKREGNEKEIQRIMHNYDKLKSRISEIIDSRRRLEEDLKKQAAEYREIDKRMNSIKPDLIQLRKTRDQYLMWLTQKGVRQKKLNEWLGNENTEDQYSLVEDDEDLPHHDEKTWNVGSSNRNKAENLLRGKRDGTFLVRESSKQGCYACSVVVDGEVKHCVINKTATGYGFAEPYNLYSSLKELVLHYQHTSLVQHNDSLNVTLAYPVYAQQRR

Row | Structure (SMILES) | IC50 ([1]; Table A1) [µM] | IC50 ([2]; Table A1) [µM] | IC50 ([1]; Table A2) [µM] | IC50 ([2]; Table A2) [µM]
1 | COC(C)(C)CNC(=O)c1nc(-c2cc(C(O)(C(N)=O)C(F)(F)F)ccc2C)cnc1N (stereo not shown) [Example 21, 3-amino-6-(5-(3-amino-1,1,1-trifluoro-2-hydroxy-3-oxopropan-2-yl)-2-methylphenyl)-N-(2-methoxy-2-methylpropyl)pyrazine-2-carboxamide trifluoroacetate] | < 0.1 | < 0.1 |  | 
2 | Cc1ccc(C(O)(C(N)=O)C(F)(F)F)cc1-c1cnc(N)c(C(=O)NC23CC(C#N)(C2)C3)n1 (stereo not shown) [Example 23, 3-amino-6-(5-(3-amino-1,1,1-trifluoro-2-hydroxy-3-oxopropan-2-yl)-2-methylphenyl)-N-(3-cyanobicyclo[1.1.1]pentan-1-yl)pyrazine-2-carboxamide trifluoroacetate] | < 0.1 | < 0.1 |  | 
3 | Cc1ccc(C(O)(C(N)=O)C(F)(F)F)cc1-c1cnc(N)c(C(=O)NC23CCC(C#N)(C2)C3)n1 (stereo not shown) [Example 24, 3-amino-6-(5-(3-amino-1,1,1-trifluoro-2-hydroxy-3-oxopropan-2-yl)-2-methylphenyl)-N-(4-cyanobicyclo[2.1.1]hexan-1-yl)pyrazine-2-carboxamide trifluoroacetate] | < 0.1 | < 0.1 |  | 
4 | Cc1ccc(C(O)(C(N)=O)C(F)(F)F)cc1-c1cnc(N)c(C(=O)NC23CCC(C#N)(CC2)CC3)n1 (stereo not shown) [Example 25, 3-amino-6-(5-(3-amino-1,1,1-trifluoro-2-hydroxy-3-oxopropan-2-yl)-2-methylphenyl)-N-(4-cyanobicyclo[2.2.2]octan-1-yl)pyrazine-2-carboxamide trifluoroacetate] | < 0.1 | < 0.1 |  | 
5 | Cc1ccc(C(O)(C(N)=O)C(F)(F)F)cc1-c1cnc(N)c(C(=O)N2CCC2(C)C)n1 (stereo not shown) [Example 27, 2-(3-(5-amino-6-(2,2-dimethylazetidine-1-carbonyl)pyrazin-2-yl)-4-methylphenyl)-3,3,3-trifluoro-2-hydroxypropanamide] | < 0.1 | < 0.1 |  | 
6 | Cc1ccc(C(O)(C(N)=O)C(F)(F)F)cc1-c1cnc(N)c(C(=O)N2CCc3cccnc32)n1 (stereo not shown) [Example 28, 2-(3-(5-amino-6-(2,3-dihydro-1H-pyrrolo[2,3-b]pyridine-1-carbonyl)pyrazin-2-yl)-4-methylphenyl)-3,3,3-trifluoro-2-hydroxypropanamide] | 0.1 to 0.5 | < 0.1 |  | 
7 | CCNC(=O)c1nc(-c2cc(C(O)(C(N)=O)C(F)F)ccc2C)cnc1N (stereo not shown) [Example 32, 3-amino-6-(5-(1-amino-3,3-difluoro-2-hydroxy-1-oxopropan-2-yl)-2-methylphenyl)-N-ethylpyrazine-2-carboxamide] | < 0.1 | < 0.1 |  | 
8 | Cc1ccc(C(O)(C(N)=O)C(F)F)cc1-c1cnc(N)c(C(=O)NCC2(C#N)CC2)n1 (stereo not shown) [Example 33, 3-amino-6-(5-(1-amino-3,3-difluoro-2-hydroxy-1-oxopropan-2-yl)-2-methylphenyl)-N-((1-cyanocyclopropyl)methyl)pyrazine-2-carboxamide] | < 0.1 | < 0.1 |  | 
9 | Cc1ccc(C(O)(C(N)=O)C(F)F)cc1-c1cnc(N)c(C(=O)NC2CCC(F)(F)CC2)n1 (stereo not shown) [Example 34, 3-amino-6-(5-(1-amino-3,3-difluoro-2-hydroxy-1-oxopropan-2-yl)-2-methylphenyl)-N-(4,4-difluorocyclohexyl)pyrazine-2-carboxamide] | < 0.1 | < 0.1 |  | 
10 | Cc1ccc(C(O)(C(N)=O)C(F)F)cc1-c1cnc(N)c(C(=O)NC(C)(C)CO)n1 (stereo not shown) [Example 35, 3-amino-6-(5-(1-amino-3,3-difluoro-2-hydroxy-1-oxopropan-2-yl)-2-methylphenyl)-N-(1-hydroxy-2-methylpropan-2-yl)pyrazine-2-carboxamide] | < 0.1 | < 0.1 |  | 
11 | Cc1ccc(C(O)(C(N)=O)C(F)F)cc1-c1cnc(N)c(C(=O)NC2CCOCC2)n1 (stereo not shown) [Example 36, 3-amino-6-(5-(1-amino-3,3-difluoro-2-hydroxy-1-oxopropan-2-yl)-2-methylphenyl)-N-(tetrahydro-2H-pyran-4-yl)pyrazine-2-carboxamide] | < 0.1 | < 0.1 |  | 
12 | Cc1ccc(C(O)(C(N)=O)C(F)F)cc1-c1cnc(N)c(C(=O)NCCC2CCOC2)n1 (stereo not shown) [Example 37, 3-amino-6-(5-(1-amino-3,3-difluoro-2-hydroxy-1-oxopropan-2-yl)-2-methylphenyl)-N-(2-(tetrahydrofuran-3-yl)ethyl)pyrazine-2-carboxamide] | < 0.1 | < 0.1 |  | 
13 | Cc1ccc(C(O)(C(N)=O)C(F)(F)F)cc1-c1cnc(N)c(C(=O)NCC(F)(F)F)n1 (stereo not shown) [Example 38, 3-Amino-6-(5-(3-amino-1,1,1-trifluoro-2-hydroxy-3-oxopropan-2-yl)-2-methylphenyl)-N-(2,2,2-trifluoroethyl)pyrazine-2-carboxamide trifluoroacetate] | < 0.1 | < 0.1 |  | 
14 | Cc1ccc(C(O)(CNC(=O)C(C)(C)O)C(F)(F)F)cc1-c1cnc(N)c(C(=O)NC(C)C)n1 (stereo not shown) [Example 41, 3-Amino-N-isopropyl-6-(2-methyl-5-(1,1,1-trifluoro-2-hydroxy-3-(2-hydroxy-2-methylpropanamido)propan-2-yl)phenyl)pyrazine-2-carboxamide trifluoroacetate] | 0.1 to 0.5 | < 0.1 |  | 
15 | C/C=C\c1nc(-c2cc(C(O)(C(N)=O)C(F)(F)F)ccc2C)cnc1N (stereo not shown) [Example 44, (Z)-2-(3-(5-amino-6-(prop-1-en-1-yl)pyrazin-2-yl)-4-methylphenyl)-3,3,3-trifluoro-2-hydroxypropanamide] |  |  | 0.1 to 0.5 | < 0.1
16 | Cc1ccc(C(O)(C(N)=O)C(F)(F)F)cc1-c1cnc(N)c(C(F)(F)F)n1 (stereo not shown) [Example 46, 2-(3-(5-Amino-6-(trifluoromethyl)pyrazin-2-yl)-4-methylphenyl)-3,3,3-trifluoro-2-hydroxypropanamide trifluoroacetate] |  |  | 0.1 to 0.5 | < 0.1
17 | COCC#Cc1nc(-c2cc(C(O)(C(N)=O)C(F)(F)F)ccc2C)cnc1N (stereo not shown) [Example 47, 2-(3-(5-amino-6-(3-methoxyprop-1-ynyl)pyrazin-2-yl)-4-methylphenyl)-3,3,3-trifluoro-2-hydroxypropanamide trifluoroacetate] |  |  | < 0.1 | < 0.1
18 | Cc1ccc(C(O)(C(N)=O)C(F)(F)F)cc1-c1cnc(N)c(C#CC2CC2)n1 (stereo not shown) [Example 48, 2-(3-(5-amino-6-(cyclopropylethynyl)pyrazin-2-yl)-4-methylphenyl)-3,3,3-trifluoro-2-hydroxypropanamide] |  |  | < 0.1 | < 0.1
19 | Cc1ccc(C(O)(C(N)=O)C(F)(F)F)cc1-c1cnc(N)c(C#CC(C)(C)O)n1 (stereo not shown) [Example 50, 2-(3-(5-amino-6-(3-hydroxy-3-methylbut-1-ynyl)pyrazin-2-yl)-4-methylphenyl)-3,3,3-trifluoro-2-hydroxypropanamide] |  |  | < 0.1 | < 0.1
20 | Cc1ccc(C(O)(C(N)=O)C(F)(F)F)cc1-c1cnc(N)c(C#CCC(C)O)n1 (stereo not shown) [Example 51, 2-(3-(5-amino-6-(4-hydroxypent-1-ynyl)pyrazin-2-yl)-4-methylphenyl)-3,3,3-trifluoro-2-hydroxypropanamide] |  |  | < 0.1 | < 0.1
